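The compound was tested at five concentrations on cells cultured in 96-well plates, with a 48-hour exposure period. At the GI50, growth is halved. TGI marks complete inhibition of growth.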

Assay in all cases: DTP human tumour cell line panel, 48 h
Assay [1] relates to BT-549 breast.
Assay [2] deals with HS 578T breast.
For assay [3], the system named is MCF7 breast.
In assay [4] the test system is NCI-H522 lung.
Assay [5] relates to SF-539 CNS.
The test system of assay [6] is T-47D breast.
The test system of assay [7] is DLD-1 colon.
The test system of assay [8] is DMS 273 small cell lung.
Assay [9] relates to HOP-18 NSCLC.
The test system of assay [10] is KM20L2 colon.

In general, TGI refers to the concentration at which net growth stops. Take `Cc1cc(C)c2c(=O)n(CC(O)CN3CCN(c4ncccn4)CC3)sc2n1` (configuration not stated): the TGI in assay [1] was determined as 32.3 µM; in assay [2], 42.8 µM; in assay [3] it was 31.8 µM; in assay [4], 26.6 µM; in assay [5], 31.6 µM; in assay [6], 52.9 µM.
As for `Nc1nc(-c2ccccc2)cc(-c2ccc(F)cc2)c1-c1ccc(Cl)cc1`, the TGI in assay [1], in assay [2], in [3] and in assay [6] was more than 100 µM throughout.
On to `Cc1cc(S(=O)(=O)Nc2nc(N)n(-c3ccccc3)n2)c(S)cc1Cl`, for which the TGI in assay [1], in [2], in assay [3], in [4], in [5] and in [6] was more than 100 µM throughout.
Turning to `O=C(NCCc1ccc(F)cc1)c1cc(/C=C/c2cc(O)ccc2O)ccc1O`, the TGI in [1] was 2.97 µM; in assay [2], more than 100 µM; in assay [3] it was 10.1 µM; in assay [4], 4.88 µM; in assay [5], 5.84 µM; in [6], 5.28 µM.
As for `CCCCc1ccc(Nc2nc(N)c3[nH]cnc3n2)cc1`, the TGI is 47.9 µM in assay [1]; 41.6 µM in assay [2]; 42.4 µM in assay [3]; 28.8 µM in assay [4]; 43.4 µM in assay [5]; more than 100 µM in [6].
For the compound `C=C1CN(C(=O)c2cc3cc(OC)c(OC)c(OC)c3[nH]2)c2cc([N+](=O)[O-])ccc21`, the TGI in assay [1] is more than 100 µM; in assay [2] it was 41.9 µM; in assay [3], more than 100 µM; in [5] it was more than 100 µM; in assay [6], more than 100 µM.
With `CCOC(=O)C(C(N)=O)c1nc2cc([N+](=O)[O-])ccc2nc1/C=C(\O)c1ccc(C)cc1` (configuration not stated), the TGI is 51.4 µM in assay [1]; 75.1 µM in assay [2]; more than 60.5 µM in assay [3]; 47.8 µM in assay [4]; 36.5 µM in [5]; more than 100 µM in assay [6].
In the case of `COc1c2c(cc3oc(=O)ccc13)OC(C)(C)C=C2`, the TGI was 70.2 µM in [1]; more than 125 µM in assay [2]; 57.8 µM in [3]; 63.9 µM in assay [4]; more than 125 µM in [5]; 23.6 µM in assay [6].
Consider `COC(=O)/C=C1\C(=O)N(C(C)=O)c2ccccc21`, for which the TGI is 27.4 µM in assay [1]; 25.8 µM in [2]; 28.2 µM in assay [3]; 15.6 µM in assay [4]; more than 46.4 µM in [5]; 30.5 µM in [6].
As to `COc1ccc(/C=C/C=C2C(=O)NC(=S)NC2=O)cc1`, the TGI in assay [1] is 4.62 µM; in assay [2] it was more than 56.6 µM; in assay [3] it was 22 µM; in assay [5], 15.8 µM; in assay [6], more than 100 µM.
In the case of `CN(C)c1ccc(C(=C2C=CC(=[N+](C)C)C=C2)c2c(O)c(S(=O)(=O)[O-])cc3cc(S(=O)(=O)O)ccc23)cc1`, the TGI in assay [1], in assay [2], in assay [3], in assay [4], in assay [5] and in [6] was more than 100 µM throughout.
As usually defined, the GI50 is the concentration giving 50% growth inhibition. `N.N.NCCCCN.O=C([O-])CCl.O=C([O-])CCl.O=C([O-])CCl.O=C([O-])CCl.[Pt+4].[Pt+4]`: the GI50 in assay [7] was more than 50 µM; in [8] it was 36 µM; in assay [9], more than 50 µM; in assay [10], more than 50 µM. In addition, the TGI in assay [7], in assay [8], in assay [9], in assay [10], in assay [4] and in [5] was more than 50 µM throughout.
On to `O=C1CCCn2c3ccccc3c3ccnc1c32`, for which the TGI in assay [7], in assay [8], in assay [9], in [10], in assay [3] and in assay [4] was more than 100 µM each time. In addition, the TGI in assay [5] is more than 100 µM.
Regarding `c1ccc(C[P+]2(c3ccccc3)CCCCC2)cc1`, the TGI in assay [7], in [8], in [9], in assay [10], in assay [4] and in [5] was more than 100 µM in each case.
Regarding `O=C1NC(N2CCOCC2)=N/C1=C\c1ccccc1`, the TGI in assay [1], in [2], in [3], in assay [4], in [5] and in assay [6] was more than 100 µM throughout.
For the compound `O=C(O)CC(Cc1ccccc1)C(=O)O` (configuration not stated), the TGI in assay [1], in [2], in assay [3], in [4], in assay [5] and in assay [6] was more than 100 µM in each case.
Turning to `CC1(C)OC2C(CO)OC(/N=C(\NC#N)Oc3ccccc3)C2O1` (configuration not stated), the TGI in assay [7], in assay [8], in assay [10] and in [5] was more than 100 µM throughout.
In the case of `Brc1ccc2c(c1)[C@H]1CCc3c([nH]c4ccccc34)[C@H]1N2`, the TGI in [1] is 34.7 µM; in assay [2], 46.5 µM; in assay [3], 18.6 µM; in [5], 16.4 µM; in assay [6], 16.8 µM.
Take `NC1=CN2c3ccccc3N(CC(=O)N3CCOCC3)C2C=C1` (configuration not stated): the TGI in assay [1], in assay [2], in [3], in assay [4], in assay [5] and in assay [6] was more than 100 µM throughout.

The values are drawn from PubChem BioAssay (NCI).
